pIC50, pKd: −log10 of the molar value.
Columns and labels:
[1] = target: T1, TRF1TRFH (Homo sapiens, UniProt P54274); assay: LO-NMR R2KD assay; assay type: binding; conditions: for pKd: global KD shared across 1H NMR peaks, single experiment, 95% CI in parentheses, 2 µM TRF1TRFH
T1 construct: encoding residues 47–268, UniProt identifier P54274-1; His6-MBP (TEV-cleavable) (N, cleaved yes); made in house; host or cells: E. coli BL21-CodonPlus(DE3)-RIL
T1 sequence (P54274 47-268): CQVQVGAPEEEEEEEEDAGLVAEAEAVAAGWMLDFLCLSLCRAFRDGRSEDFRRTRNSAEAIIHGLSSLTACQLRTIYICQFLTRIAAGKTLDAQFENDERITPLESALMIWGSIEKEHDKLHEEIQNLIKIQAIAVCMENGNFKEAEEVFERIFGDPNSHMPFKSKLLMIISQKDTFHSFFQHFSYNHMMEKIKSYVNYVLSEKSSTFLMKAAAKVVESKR
Experimental: Recent work by Liu and colleagues introduced a novel LO-NMR method that can be used to quantitatively determine the dissociation constant (KD) of a ligand for a protein from measured R2 values of ligand nuclei at a range of ligand concentrations.
The R2KD assay was carried out as described by Liu et al.[40]. A Bruker SamplePro liquid handler was used to prepare 10 samples: 8 samples containing an increasing ligand concentration from 50 to 500 µM whilst maintaining a constant TRF1TRFH concentration (2 µM final); and two samples containing ligand only at 200 µM and 400 µM. All ten samples were prepared from stock solutions of ligand, DMSO, protein and buffer alone using the Bruker SamplePro liquid handler prior to transfer to 3-mm NMR tubes.
NMR data were collected at 298 K on a Bruker Avance Neo 600-MHz spectrometer using the Bruker Topspin 4.0 software. T2 relaxation experiments were performed using the standard Bruker CPMG pulse program with Excitation Sculpting incorporated to suppress water signal. The spin-echo period (delay-180°-delay) was set to 1 ms (d20 = 500 µs), and the relaxation delay (d1) was set to 10 s. The sudo-2D experiment contained nine slices with the spin echo period repeated at the following times: 4, 20, 100, 200, 300, 500, 700, 1000, and 2000 ms. T2 relaxation data were processed using the MestReNova 14.1 data analysis module to obtain integrals of individual[1]H-NMR signals, which were used to calculate R2 with the equation I = I0e^(−tR2). GraphPad Prism 9.0.0 was used to fit R2 values of individual compound peaks to obtain an overall (shared) KD value from all peaks of the compound.

[2] = Fragment solubility assay (quantitative 1H NMR); assay type: physicochemical; conditions: NMR buffer, overnight incubation, 1H NMR quantified against 1 mM caffeine standard
Experimental: Aqueous solubility test samples were prepared by adding 3.6 µL compound (50 mM stock in 100% DMSO-d6) to 176.4 µL NMR buffer in a microcentrifuge tube. The samples were incubated overnight and transferred to a 3-mm NMR tube (Bruker, Part No. Z112272). ^1H NMR spectra were recorded, with the DMSO and water signals dampened. 1 mM caffeine (Sigma, C1778 in PBS (pH 7.4) with 1% DMSO-d6) was used as a standard to quantify the ligand signals and determine the concentration of samples.
NMR data were collected on a Bruker Avance Neo 600-MHz spectrometer equipped with a 5 mm TCI-CryoProbe. The ^1H spectrum was referenced to the internal deuterated solvent. The operating frequency for ^1H was 600 MHz. All NMR data were acquired at the temperature of 298 K. All data were acquired and processed using Bruker Topspin 4.0. The quantitative ^1H-NMR spectrum was acquired using a Bruker standard 1D lc1pngppsf2 pulse sequence with 32 scans. The sweep width was 6.2 ppm with O1P set to 8.8 ppm, and the FID contained 16k time-domain data points. Relaxation delay was set to 20 s. Water signal was suppressed.

[3] = target: T2, TRF1TRFH:TIN2-FAM interaction (Homo sapiens, UniProt P54274); assay: Fluorescence polarisation (FP) competition assay, TIN2-FAM displacement; assay type: binding; conditions: 0.6 µM TRF1TRFH, 25 nM TIN2-FAM; mean of three independent experiments, 95% CI in parentheses
T2 construct: encoding residues 47–268, UniProt identifier P54274-1; His6-MBP (TEV-cleavable) (N, cleaved yes); made in house; host or cells: E. coli BL21-CodonPlus(DE3)-RIL (TRF1TRFH); probe peptide from Pepceuticals
T2 sequence (P54274 47-268): T1 sequence (P54274 47-268)
Experimental: To complement the biophysical R2KD assay, we developed a fluorescence polarisation (FP) competition assay based on a TIN2TBM peptide labelled with an N-terminal 5(6)-carboxyfluorescein (6-FAM) fluorophore. […] The NMR hit analogues were then titrated against constant concentrations of TRF1TRFH and TIN2-FAM (0.6 µM and 25 nM, respectively).
A TIN2TBM peptide was obtained from Pepceuticals with a 5(6)-carboxyfluorescein (FAM) fluorophore added to the N-terminus for fluorescence studies. To determine the assay window for the FP assay, the TIN2-FAM probe was prepared as a 16-µM stock in aqueous buffer and titrated from 0 to 400 nM against either a constant concentration of TRF1TRFH (0.5 µM in FP buffer) or FP buffer alone (25 mM HEPES-NaOH pH 7.5, 100 mM NaCl, 1 mM TCEP, 0.05% w/v CHAPS). Samples were prepared to a final volume of 10 µL in Packard Proxiplate 384 F plus plates; plates were incubated in darkness at room temperature for 1 h prior to measuring fluorescence intensities and calculating FP values, using a BMG Labtech PHERAstar FSX plate reader with an FP 485 520 520 optic module. A settling time of 0.3 s was used, and the number of flashes was set to 200 for FP measurements. For each plate, a target mP of 35 was set and the gain adjusted on the TIN2-FAM probe control well minus protein.
For the FP competition assay, the unlabelled compounds (from 50-mM DMSO stocks) were first dispensed in duplicate into wells of a Proxiplate 384 F Plus plate using an Echo 550 acoustic liquid handler to give a 13-point concentration range from 0.2 to 500 µM. Wells were then backfilled to 250 nL with DMSO before the addition of 5 µL of 2x TRF1TRFH (0.6 µM final concentration) and 4.75 µL 2x TIN2-FAM (25 nM final concentration). Plates were spun and sealed prior to incubation for 1 h in darkness. FP measurements were then carried out as described above.

[4] = target: T1, TRF1TRFH; assay: LO-NMR CPMG assay (relaxation-edited), singletons; assay type: binding; conditions: single experiment; for CPMG reduction: average peak intensity reduction on addition of TRF1TRFH, 250 µM ligand, 20 µM protein; for CPMG recovery: net recovery of peak intensity on addition of TIN2TBM peptide (40 µM) to compound plus protein
Experimental: We next used a LO-NMR CPMG assay to orthogonally validate XChem hits in solution, aiming to eliminate false positives and rank hit matter for follow-up studies. Compounds were tested as singletons and prepared in two samples containing either compound alone (sample 1) or compound + TRF1TRFH (sample 2).
The fragment screen by LO-NMR was carried out using conditions described previously, with some modifications. Fragments were dispensed in triplicate into a 384-well plate using an Echo 550 liquid handler to give a final ligand concentration of 250 µM (total sample volume of 40 µL). 40 µL of TRF1TRFH protein (in NMR buffer; 20 µM final protein concentration in the assay) were added to the ‘protein’ samples; 40 µL of TRF1TRFH protein and TIN2TBM peptide (21-mer, Ac-[…]-CONH2; 40 µM final concentration in the assay) were both added to the ‘competitor’ samples; 40 µL NMR buffer were added to the ‘compound-only’ samples. Solutions were transferred to 1.7-mm NMR tubes using a Bruker SamplePro Tube robotics system. ^1H NMR spectra were recorded on a Bruker AVIII 500 MHz spectrometer at 298 K, equipped with a 1.7-mm TXI probe, with samples in 1.7-mm SampleJET NMR tubes (Bruker). DMSO and water signals were dampened. A relaxation spin filter was applied at 400 ms. Data were processed using Bruker Topspin 4.0. Lines were broadened with LB = 3.0, and the baseline was corrected between 6.0 and 10.0 ppm.
The data were then analysed using the MNova Screen software. Only peaks between 5.5 and 9.5 ppm were considered. Peaks with a height of < 5% maximum peak height within the region of interest were considered noise, and the minimum matched peak level was set at > 51%. The relative peak intensity change (I) was calculated for all peaks in the 5.5–9.5 ppm region, for each compound, as described previously. The average integral for all peaks between 6.0 and 10.0 ppm was calculated, and the differences between compound-only, compound-plus-protein, and compound-plus-protein-plus-competitor samples were compared. The net recovery was calculated by subtracting the reduction in peak integral of the compound-plus-protein samples from the compound-plus-protein-plus-competitor samples.
For hit validation, relaxation-edited LO-NMR experiments were repeated as described above on single compounds instead of fragment cocktails.

SMILES: CCCOc1cccc(COc2ccc(S(=O)(=O)[O-])c3ccccc23)c1.[Na+] [Compound 41]
- pKd [1]: 4.34
- Kin. Sol. [2]: 590 µM
- pIC50 [3]: 4.64

SMILES: Cc1cccc(COc2ccc(S(=O)(=O)[O-])c3ccccc23)c1.[Na+] [Compound 37]
- pKd [1]: 4.08
- Kin. Sol. [2]: 460 µM
- pIC50 [3]: 3.70

SMILES: COc1ccc(S(=O)(=O)O)c2ccccc12 [Compound 28, 4-methoxy-1-naphthalenesulfonic acid]
- Kin. Sol. [2]: 610 µM
- CPMG reduction [4]: 87%
- CPMG recovery [4]: 22%

SMILES: NS(=O)(=O)c1ccccc1OC(F)F [Compound 15]
- CPMG reduction [4]: 0%

SMILES: O=S(=O)([O-])c1ccc(OCc2cccc(Br)c2)c2ccccc12.[Na+] [Compound 44]
- Kin. Sol. [2]: 160 µM
- pIC50 [3]: 3.96

SMILES: COc1ccccc1COc1ccc(S(=O)(=O)[O-])c2ccccc12.[Na+] [Compound 39]
- pKd [1]: 3.96
- Kin. Sol. [2]: 320 µM
- pIC50 [3]: 3.77

SMILES: CN(C)C(=O)COc1cccc(F)c1 [Compound 6]
- CPMG reduction [4]: 12%

SMILES: CCOc1ccc(S(=O)(=O)O)c2ccccc12 [Compound 27]
- pKd [1]: 3.55
- Kin. Sol. [2]: 810 µM
- CPMG reduction [4]: 96%
- CPMG recovery [4]: 49%

SMILES: c1ccc(-c2noc(C3CCC3)n2)nc1 [Compound 16]
- CPMG reduction [4]: 22%

SMILES: O=S(=O)(O)c1ccc(O)c2ccccc12 [Compound 29, 1-naphthol-4-sulfonic acid]
- pKd [1]: < 3.00
- Kin. Sol. [2]: 840 µM

SMILES: CC(C)Oc1ccc(S(=O)(=O)[O-])c2ccccc12.[Na+] [Compound 30]
- pKd [1]: < 3.00
- Kin. Sol. [2]: 860 µM
- CPMG reduction [4]: 83%
- CPMG recovery [4]: 4%

SMILES: O=S(=O)([O-])c1ccc(OCc2cccc(OC(F)(F)F)c2)c2ccccc12.[Na+] [Compound 42]
- Kin. Sol. [2]: 260 µM
- pIC50 [3]: 4.10

SMILES: O=C(NC1CC1)c1cnn2cccnc12 [Compound 1]
- CPMG reduction [4]: 13%

SMILES: CCOc1ccc(C(=O)O)c2ccccc12 [Compound 34, 4-ethoxy-1-naphthoic acid]
- Kin. Sol. [2]: 895 µM
- CPMG reduction [4]: 28%
- CPMG recovery [4]: 20%

SMILES: CCOc1ccc(S(=O)(=O)N(C)C)c2ccccc12 [Compound 35]
- Kin. Sol. [2]: < 50 µM

SMILES: COc1cccc(COc2ccc(S(=O)(=O)[O-])c3ccccc23)c1.[Na+] [Compound 38]
- pKd [1]: 4.28
- Kin. Sol. [2]: 570 µM
- pIC50 [3]: 3.82

SMILES: O=S(=O)(O)c1ccc(OCc2ccccc2)c2ccccc12 [Compound 32]
- increase in affinity relative to ethoxy parent 27 ([1]; R2KD assay): five-fold increase in affinity
- pKd [1]: 4.21
- Kin. Sol. [2]: 850 µM
- pIC50 [3]: 3.82
- CPMG reduction [4]: 100%
- CPMG recovery [4]: 29%

SMILES: CCOc1ccc(S(N)(=O)=O)c2ccccc12 [Compound 33, 4-ethoxynaphthalene-1-sulfonamide]
- Kin. Sol. [2]: 50 µM
- CPMG reduction [4]: 79%
- CPMG recovery [4]: 1%

SMILES: O=S(=O)([O-])c1ccc(OCc2cccc(Cl)c2)c2ccccc12.[Na+] [Compound 43]
- pKd [1]: 3.85
- Kin. Sol. [2]: 500 µM
- pIC50 [3]: 3.74

SMILES: CCOc1ccc(S(=O)(=O)NCc2ccccc2)c2ccccc12 [Compound 36]
- Kin. Sol. [2]: 0 µM

— PMC12635197, “Discovery of first-in-class inhibitors of the TRF1:TIN2 protein:protein interaction by fragment screening” (Scientific Reports, 2025)
